{"source": "patent US20110082101A1", "about": "“COMBINATIONS COMPRISING EPOTHILONES AND ANTI-METABOLITES” (priority 2002, published 2011)", "key": {"[1]": {"test_system": "advanced renal cancer", "assay": "Treatment of a human patient having advanced renal cancer with epothilone B plus capecitabine", "format": "in vivo", "conditions": "Example 1, one human patient, combination: epothilone B 0.5 mg/m^2 five minutes bolus infusion weekly for 3 weeks, one week off, plus capecitabine orally 1250 mg/m^2 twice daily for two weeks, cycle repeated several times", "protocol": "A human patient having advanced renal cancer receives 0.5 mg/m^2 of epothilone B as a five minutes bolus infusion weekly for 3 weeks followed by one week off. Starting in the second week of the epothilone treatment and at least two hours after said treatment, capecitabine is applied orally to said patient twice daily at a dosage of 1250 mg/m^2 for two weeks followed by one week off. The whole treatment cycle is applied to the patient several times. Stable disease is observed for about 8 months."}, "[2]": {"test_system": "advanced colon cancer", "assay": "Treatment of a human patient having advanced colon cancer with epothilone B plus gemcitabine hydrochloride", "format": "in vivo", "conditions": "Example 5, one human patient, combination: epothilone B 0.5 mg/m^2 five minutes bolus infusion weekly for 3 weeks, one week off, plus gemcitabine hydrochloride 800 mg/m^2 twice daily, cycle repeated several times", "protocol": "A human patient having advanced colon cancer receives 0.5 mg/m^2 of epothilone B as a five minutes bolus infusion weekly for 3 weeks followed by one week off. Immediately following said treatment, gemcitabine hydrochloride is applied orally to said patient twice daily at a dosage of 800 mg/m^2. The whole treatment cycle is applied to the patient several times. Stable disease is observed for about […] months."}}}
{"smiles": "C/C(=C\\c1csc(C)n1)[C@@H]1C[C@@H]2O[C@]2(C)CCC[C@H](C)[C@H](O)[C@@H](C)C(=O)C(C)(C)[C@@H](O)CC(=O)O1", "note": "[epothilone B]", "values": [{"measurement": "Stable disease observed for (duration)", "setting": "[1]", "result": "about 8 months"}, {"measurement": "Stable disease observed for (duration)", "setting": "[2]", "result": "about 3%"}]}
